Laboratory results taken from ChEMBL document CHEMBL5712884, “S-Adenosyl-L-methionine-competitive inhibitors of the histone methyltransferase EZH2 induce autophagy and enhance drug sensitivity in cancer cells” (Anticancer Drugs, 2015).
The source made the active and inactive calls. The rule behind the calls is not given here.

How the values were obtained:
MDA-MB-231 [1] = experiment: Induction of autophagy in human MDA-MB-231 cells assessed as induction of LC3-II accumulation at 10 umol/L for 48 hrs by Western blot analysis; conditions: dose 10.0 µmol/L
MDA-MB-231 [2] = experiment: Induction of apoptosis in human MDA-MB-231 cells assessed as cleavage of caspase-3 at 0.75 umol/L incubated for 72 hrs by Western blot analysis; format: functional, cell-based; conditions: dose 0.75 µmol/L
MDA-MB-231 [3] = experiment: […] in human MDA-MB-231 cells assessed as induction of LC3-II accumulation at 1 umol/L for 48 hrs by Western blot analysis; format: functional, cell-based; conditions: dose 1.0 µmol/L
MDA-MB-231 [4] = experiment: Induction of apoptosis in human MDA-MB-231 cells assessed as cleavage of PARP at 0.75 umol/L incubated for 72 hrs by Western blot analysis; format: functional, cell-based; conditions: dose 0.75 µmol/L

COc1cc([C@@H]2c3cc4c(cc3[C@@H](O[C@@H]3O[C@@H]5CO[C@@H](C)O[C@H]5[C@H](O)[C@H]3O)[C@H]3COC(=O)[C@H]23)OCO4)cc(OC)c1O
Activity (MDA-MB-231 [1]): Active

COc1cccc2c1C(=O)c1c(O)c3c(c(O)c1C2=O)C[C@@](O)(C(=O)CO)C[C@@H]3O[C@H]1C[C@H](N)[C@H](O)[C@H](C)O1
Activity (MDA-MB-231 [2]): Active
Activity (MDA-MB-231 [3]): Active
Activity (MDA-MB-231 [4]): Active

CC(=O)O[C@H]1C(=O)[C@@]2(C)[C@H]([C@H](OC(=O)c3ccccc3)[C@]3(O)C[C@H](OC(=O)[C@H](O)[C@@H](NC(=O)c4ccccc4)c4ccccc4)C(C)=C1C3(C)C)[C@]1(OC(C)=O)CO[C@@H]1C[C@@H]2O
Activity (MDA-MB-231 [3]): Active

CCCc1cc(C)[nH]c(=O)c1CNC(=O)c1cc(-c2ccc(N3CCN(C(C)C)CC3)nc2)cc2c1cnn2C(C)C
Activity (MDA-MB-231 [1]): Active
